Data from US5714615A (priority 1994, dated 1998).
Entries after “also recorded” stand apart in the source; their conditions may differ.

Legend:
nicotinic receptor = nicotinic receptor (Rattus norvegicus, UniProt P09483+P12390); experiment: biochemical; assay type: binding
DMTS performance = details: monkey, in vivo; cited from earlier work
[1] = mouse, in vivo
AChE = assay type: biochemical, electric eel and human
electric eel AChE = electric eel AChE (Electrophorus electricus, UniProt O42275); assay type: biochemical
human erythrocyte AChE = human erythrocyte AChE (Homo sapiens, UniProt P22303); assay type: biochemical
in vivo = details: mouse, po
GA = system: GA; design: species or system Male ICR mice; details: mouse, in vivo
[2] = target: human erythrocyte acetylcholinesterase (Homo sapiens, UniProt P22303); assay type: biochemical; details: erythrocyte ache
[3] = target: T1, electric eel acetylcholinesterase (Electrophorus electricus, UniProt O42275); assay type: biochemical; details: 0.1m phosphate buffer
[4] = target: T1, electric eel acetylcholinesterase; details: cited from earlier work

T1 sequence (O42275 24-633): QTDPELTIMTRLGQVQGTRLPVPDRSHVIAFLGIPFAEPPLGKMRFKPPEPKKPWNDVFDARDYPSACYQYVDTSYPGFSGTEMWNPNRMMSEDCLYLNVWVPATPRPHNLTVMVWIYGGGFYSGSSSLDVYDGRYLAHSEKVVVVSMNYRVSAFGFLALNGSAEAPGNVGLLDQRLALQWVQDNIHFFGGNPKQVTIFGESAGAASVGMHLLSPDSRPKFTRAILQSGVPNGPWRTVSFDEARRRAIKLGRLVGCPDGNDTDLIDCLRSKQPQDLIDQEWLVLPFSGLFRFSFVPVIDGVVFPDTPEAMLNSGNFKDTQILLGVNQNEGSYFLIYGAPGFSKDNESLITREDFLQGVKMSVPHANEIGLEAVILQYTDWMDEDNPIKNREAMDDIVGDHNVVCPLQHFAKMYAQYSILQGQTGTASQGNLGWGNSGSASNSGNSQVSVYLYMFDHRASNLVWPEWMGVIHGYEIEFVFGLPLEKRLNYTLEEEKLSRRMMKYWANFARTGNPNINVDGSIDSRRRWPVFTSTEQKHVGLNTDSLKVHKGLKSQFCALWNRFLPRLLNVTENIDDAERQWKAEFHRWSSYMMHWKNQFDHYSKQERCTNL
nicotinic receptor, sequence (P12390 25-500): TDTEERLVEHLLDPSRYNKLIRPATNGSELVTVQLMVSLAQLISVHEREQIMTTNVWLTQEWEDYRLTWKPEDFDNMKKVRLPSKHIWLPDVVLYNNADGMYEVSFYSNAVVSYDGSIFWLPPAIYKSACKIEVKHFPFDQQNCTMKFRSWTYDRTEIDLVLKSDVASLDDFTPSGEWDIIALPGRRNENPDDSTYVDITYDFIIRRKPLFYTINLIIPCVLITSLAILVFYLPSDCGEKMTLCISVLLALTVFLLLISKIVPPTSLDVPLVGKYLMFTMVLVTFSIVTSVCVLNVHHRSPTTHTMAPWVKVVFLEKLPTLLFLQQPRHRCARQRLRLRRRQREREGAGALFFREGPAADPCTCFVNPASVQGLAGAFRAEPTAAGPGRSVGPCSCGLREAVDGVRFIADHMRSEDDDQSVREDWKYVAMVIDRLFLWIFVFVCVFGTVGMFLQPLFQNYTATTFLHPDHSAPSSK
nicotinic receptor, sequence (P09483 31-630): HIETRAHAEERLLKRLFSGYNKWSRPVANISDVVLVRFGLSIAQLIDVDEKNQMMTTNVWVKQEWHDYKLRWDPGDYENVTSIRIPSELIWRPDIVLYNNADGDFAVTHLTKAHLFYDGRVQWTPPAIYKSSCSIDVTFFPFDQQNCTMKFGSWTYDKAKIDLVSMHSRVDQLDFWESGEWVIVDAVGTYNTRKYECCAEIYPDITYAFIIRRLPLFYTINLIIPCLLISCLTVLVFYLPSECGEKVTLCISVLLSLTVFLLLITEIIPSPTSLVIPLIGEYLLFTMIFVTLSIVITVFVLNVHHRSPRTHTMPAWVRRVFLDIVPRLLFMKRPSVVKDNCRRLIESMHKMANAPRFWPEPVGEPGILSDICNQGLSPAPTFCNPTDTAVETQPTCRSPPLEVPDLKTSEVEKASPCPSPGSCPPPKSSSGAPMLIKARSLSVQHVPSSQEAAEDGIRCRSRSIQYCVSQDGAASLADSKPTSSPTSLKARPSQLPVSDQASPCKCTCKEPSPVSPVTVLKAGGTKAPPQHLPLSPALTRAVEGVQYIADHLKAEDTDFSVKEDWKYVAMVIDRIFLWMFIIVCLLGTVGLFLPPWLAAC
electric eel AChE, sequence (O42275 24-633): as the sequence (O42275 24-633) above
human erythrocyte AChE, sequence (P22303-2 with tags, fused parts or gaps limits assumed): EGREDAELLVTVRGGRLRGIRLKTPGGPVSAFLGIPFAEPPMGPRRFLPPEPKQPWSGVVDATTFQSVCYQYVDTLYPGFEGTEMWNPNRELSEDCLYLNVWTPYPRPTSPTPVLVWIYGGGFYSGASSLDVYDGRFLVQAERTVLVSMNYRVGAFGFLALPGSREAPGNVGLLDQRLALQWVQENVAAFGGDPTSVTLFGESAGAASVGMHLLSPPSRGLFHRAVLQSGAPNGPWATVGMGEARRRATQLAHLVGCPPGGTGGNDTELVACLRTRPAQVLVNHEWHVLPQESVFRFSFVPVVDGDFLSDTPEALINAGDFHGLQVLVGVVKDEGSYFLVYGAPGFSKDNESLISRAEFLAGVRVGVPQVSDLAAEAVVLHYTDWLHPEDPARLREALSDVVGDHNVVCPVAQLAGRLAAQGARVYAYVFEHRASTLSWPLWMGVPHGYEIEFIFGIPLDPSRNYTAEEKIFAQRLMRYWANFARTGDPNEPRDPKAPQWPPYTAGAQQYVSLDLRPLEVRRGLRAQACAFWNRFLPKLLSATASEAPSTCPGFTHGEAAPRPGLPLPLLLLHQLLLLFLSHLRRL
human erythrocyte acetylcholinesterase, sequence (P22303-2 with tags, fused parts or gaps limits assumed): as above

C[N+](C)(C)CCOC(N)=O [Carbachol]
IC50 (nicotinic receptor): 0.699 µM | potency less than nicotine (nicotinic receptor): about 18 fold

Clc1cccc(Cl)c1N=C1NCCN1 [Clonidine, clonidine]
delay intervals at which DMTS is improved (DMTS performance): improves DMTS performance to the greatest extent at medium delays | duration of DMTS improvement after administration (DMTS performance): at least 24 hr

C[n+]1ccccc1C=NOCc1ccccc1 [Compound 1a, O-Benzyl-N-(1-methyl-2-pyridinemethylene) hydroxylamine chloride]
comparative drug toxicity [1]: 1a>1b | mode of inhibition of AChE (AChE): pure competitive inhibition

C[n+]1cccc(O)c1C=NOCc1ccccc1 [Compound 1b, O-Benzyl-N-(3-hydroxy-1-methyl-2-pyridinemethylene) hydroxylamine chloride]
comparative drug toxicity [1]: 1b>1c | mode of inhibition of AChE (AChE): pure competitive inhibition

CON=Cc1c(O)ccc[n+]1C [Compound 1c, O-Methyl-N-(3-hydroxy-1-methyl-2-pyridinemethylene) hydroxylamine chloride]
inhibition of electric eel AChE (electric eel AChE): did not inhibit either enzyme at concentrations up to 1 mM | inhibition of human AChE (human erythrocyte AChE): did not inhibit either enzyme at concentrations up to 1 mM | LD50 at 24 h (in vivo): > 3200 µmol/kg | % survival (GA): 0%

C[n+]1cccc(O)c1C=NOCc1ccc(Cl)cc1 [Compound 1d, O-(p-Chlorobenzyl)-N-(3-hydroxy-1-methyl-2-pyridinemethylene) hydroxylamine chloride]
mode of inhibition of AChE (AChE): pure competitive inhibition

COc1ccc(CON=Cc2c(O)ccc[n+]2C)cc1 [Compound 1e, O-(p-Methoxybenzyl)-N-(3-hydroxy-1-methyl-2-pyridinemethylene) hydroxylamine chloride]
mode of inhibition of AChE (AChE): pure competitive inhibition

C[n+]1cccc(O)c1C=NO [Compound 1f]
comparative drug toxicity [1]: small increase in toxicity | inhibition of electric eel AChE (electric eel AChE): did not inhibit either enzyme at concentrations up to 1 mM | inhibition of human AChE (human erythrocyte AChE): did not inhibit either enzyme at concentrations up to 1 mM | % survival (GA): 0%

C[n+]1cc(O)ccc1C=NO [Compound 1g]
comparative drug toxicity [1]: small increase in toxicity | % survival (GA): 0%

C[n+]1cccc(O)c1C=NNC(=O)Nc1ccccc1.[Cl-] [Compound 3b, 3-Hydroxy-1-methyl-2-[[(N-phenylaminocarbonyl)hydrazono]methyl] pyridinium chloride]
mode of inhibition of AChE (AChE): mixed-type inhibition; also recorded: noncompetitive kinetics

C[n+]1ccccc1C=NNC(=O)C[n+]1ccccc1 [Compound 5b, 2-(1-Methyl-2-pyridinemethylene)-1-[2-(1-pyridinium)acetyl] hydrazine dichloride]
mode of inhibition of AChE (AChE): mixed-type inhibition; also recorded: At concentrations up to 75 μM, 5b acts as a noncompetitive inhibitor; also recorded: at higher concentrations, 5b is an uncompetitive inhibitor

CN1CCCC1c1cccnc1 (stereo not shown) [Nicotine]
improvement in DMTS performance (DMTS performance): 5-10 % points

CNC(=O)Oc1ccc2c(c1)[C@]1(C)CCN(C)[C@@H]1N2C [Physostigmine]
kobs/[I] (human) [2]: 19000 M⁻¹ s⁻¹ | binding to nicotinic receptors (nicotinic receptor): no selective binding to nicotinic receptors, even at mM concentrations | kobs/[I] (eel) [3]: 140000 M⁻¹ s⁻¹ | delay intervals at which DMTS is improved (DMTS performance): acts more evenly across short, medium and long delays | duration of DMTS response (DMTS performance): evokes responses only on the day of administration | improvement in DMTS performance (DMTS performance): 5-10 % points | kobs/[I] (literature value, footnote to eel column) [4]: 18500 M⁻¹ s⁻¹

CN(C)C(=O)Oc1ccc[n+](C)c1 [Pyridostigmine, pyridostigmine]
kobs/[I] (literature value, footnote to eel column) [4]: 843 M⁻¹ s⁻¹
